These results are taken from patent US8357694B2, “Substituted 5,6-dihydro-6-phenylbenzo[F]isoquinolin-2-amine compounds” (ArQule, Inc., priority 2008, dated 2013).

The melting point is the temperature of the solid-liquid transition.

Counter-ions that a name gives are not always drawn.

`CCCCNCCc1cc(Nc2ncc3c(n2)-c2ccccc2[C@H](c2ccccc2F)C3)ccc1F` (as salt: hydrochloride) [Example 171, (R)—N-(3-(2-(butylamino)ethyl)-4-fluorophenyl)-6-(2-fluorophenyl)-5,6-dihydrobenzo[h]quinazolin-2-amine hydrochloride salt]: the melting point lay within 180 to 185 °C.

In the case of `CCCCN(C)CCc1ccc(Nc2ncc3c(n2)-c2ccccc2[C@H](c2ccc(F)c(F)c2)C3)cc1` (as salt: hydrochloride) [Example 96, (S)—N-(4-(2-(butyl(methyl)amino)ethyl)phenyl)-6-(3,4-difluorophenyl)-5,6-dihydrobenzo[h]quinazolin-2-amine hydrochloride salt], the melting point lay in the range of 145 to 150 °C.

`CN(CCc1ccc(Nc2ncc3c(n2)-c2ccccc2C(c2ccc(Cl)c(Cl)c2)C3)cc1)C1CCCCC1` (stereo not shown) [Example 30, N-(4-(2-(cyclohexyl(methyl)amino)ethyl)phenyl)-6-(3,4-dichlorophenyl)-5,6-dihydrobenzo[h]quinazolin-2-amine] displayed a melting point of 130 to 131 °C.

`CN(CCc1ccc(Nc2ncc3c(n2)-c2ccccc2C(c2cccc(Br)c2)C3)cc1)CCc1ccccn1` (stereo not shown) [Example 36, 6-(3-bromophenyl)-N-(4-(2-(methyl(2-(pyridin-2-yl)ethyl)amino)ethyl)phenyl)-5,6-dihydrobenzo[h]quinazolin-2-amine] showed a melting point of 75 to 77 °C.

In turn, `CN1CCN(CCc2cc(Nc3ncc4c(n3)-c3ccccc3[C@H](c3ccccc3F)C4)ccc2F)CC1` (as salt: hydrochloride) [Example 174, (R)—N-(4-fluoro-3-(2-(4-methylpiperazin-1-yl)ethyl)phenyl)-6-(2-fluorophenyl)-5,6-dihydrobenzo[h]quinazolin-2-amine hydrochloride salt] came in with a melting point of 225 to 229 °C.

Turning to `CC(O)CN(CCc1ccc(Nc2ncc3c(n2)-c2ccccc2C(c2cccc(Br)c2)C3)cc1)Cc1ccccc1` (stereo not shown) [Example 39, 1-(benzyl(4-(6-(3-bromophenyl)-5,6-dihydrobenzo[h]quinazolin-2-ylamino)phenethyl)amino)propan-2-ol], the melting point fell in the range of 90 to 92 °C.

As to `Brc1ccc([C@H]2Cc3cnc(Nc4ccc(CCN5CCCCC5)cc4)nc3-c3ccccc32)cc1` (as salt: hydrochloride) [Example 108, (R)-6-(4-bromophenyl)-N-(4-(2-(piperidin-1-yl)ethyl)phenyl)-5,6-dihydrobenzo[h]quinazolin-2-amine hydrochloride salt], the melting point lay in the range of 170 to 175 °C.

Consider `CCCCN(C)CCc1ccc(Nc2ncc3c(n2)-c2ccccc2[C@H](c2ccccc2F)C3)cc1` (as salt: hydrochloride) [Example 110, (R)—N-(4-(2-(butyl(methyl)amino)ethyl)phenyl)-6-(2-fluorophenyl)-5,6-dihydrobenzo[h]quinazolin-2-amine hydrochloride], for which the melting point was 78 to 81 °C.

Turning to `Clc1ccc([C@@H]2Cc3cnc(Nc4ccc(CCN5CCCCC5)cc4)nc3-c3ccccc32)cc1` (as salt: hydrochloride), the melting point lay within 261 to 263 °C.

Compound `COCCN1CCN(Cc2cccc(Nc3ncc4c(n3)-c3ccccc3[C@H](c3ccccc3F)C4)c2)CC1` (as salt: hydrochloride) [Example 179, (R)-6-(2-fluorophenyl)-N-(3-((4-(2-methoxyethyl)piperazin-1-yl)methyl)phenyl)-5,6-dihydrobenzo[h]quinazolin-2-amine hydrochloride] showed a melting point of 173 to 178 °C.

Take `OCCc1ccccc1Nc1ncc2c(n1)-c1ccccc1[C@H](c1ccccc1F)C2` [Example 177, (R)-2-(2-(6-(2-fluorophenyl)-5,6-dihydrobenzo[h]quinazolin-2-ylamino)phenyl)ethanol]: the melting point lay within 162 to 163 °C.

For `COCCN1CCN(CCc2ccc(Nc3ncc4c(n3)-c3ccccc3C(c3ccc(F)c(F)c3)C4)cc2)CC1` (stereo not shown) [Example 59, 6-(3,4-difluorophenyl)-N-(4-(2-(4-(2-methoxyethyl)piperazin-1-yl)ethyl)phenyl)-5,6-dihydrobenzo[h]quinazolin-2-amine], the melting point was 267 to 270 °C.

Turning to `CC(C)(C)OC(=O)N1CCC[C@@H](Nc2ncc3c(n2)-c2ccccc2[C@@H](c2ccc(Cl)c(Cl)c2)C3)C1`, the melting point was 85 to 87 °C.

`Brc1cccc(C2Cc3cnc(Nc4ccc(CCNCc5ccccc5)cc4)nc3-c3ccccc32)c1` (stereo not shown) [Example 46, N-(4-(2-(benzylamino)ethyl)phenyl)-6-(3-bromophenyl)-5,6-dihydrobenzo[h]quinazolin-2-amine] displayed a melting point of 98 to 100 °C.

`CCCCN(C)CCc1ccc(Nc2ncc3c(n2)-c2ccccc2[C@H](c2ccc(Cl)c(Cl)c2)C3)cc1` (as salt: hydrochloride) [Example 105, (S)—N-(4-(2-(butyl(methyl)amino)ethyl)phenyl)-6-(3,4-dichlorophenyl)-5,6-dihydrobenzo[h]quinazolin-2-amine hydrochloride salt] came in with a melting point of 135 to 145 °C.

The compound `CN(C)CCCCNc1ncc2c(n1)-c1ccccc1C(c1cccc(Br)c1)C2` (stereo not shown) [Example 6, N^1-(6-(3-bromophenyl)-5,6-dihydrobenzo[h]quinazolin-2-yl)-N^4,N^4-dimethylbutane-1,4-diamine] displayed a melting point of 115 to 117 °C.

As for `OCCc1ccc(Nc2ncc3c(n2)-c2ccccc2[C@@H](c2ccc(Cl)c(Cl)c2)C3)cc1`, the melting point fell in the range of 113 to 115 °C.

With `CN(CCc1ccc(Nc2ncc3c(n2)-c2ccccc2[C@H](c2ccc(F)cc2)C3)cc1)C1CCCCC1` [Example 102, (S)—N-(4-(2-(cyclohexyl(methyl)amino)ethyl)phenyl)-6-(4-fluorophenyl)-5,6-dihydrobenzo[h]quinazolin-2-amine], the melting point is 160 to 162 °C.

Take `COCCN1CCN(CCc2ccc(Nc3ncc4c(n3)-c3ccccc3C(c3ccc(Cl)cc3)C4)cc2)CC1` (stereo not shown) (as salt: hydrochloride) [Example 56, 6-(4-chlorophenyl)-N-(4-(2-(4-(2-methoxyethyl)piperazin-1-yl)ethyl)phenyl)-5,6-dihydrobenzo[h]quinazolin-2-amine hydrochloride]: the melting point lay within 204 to 214 °C.

`CCCCN(C)CCc1ccc(Nc2ncc3c(n2)-c2ccccc2C(c2ccccc2C(F)(F)F)C3)cc1` (stereo not shown) [Example 68, N-(4-(2-(butyl(methyl)amino)ethyl)phenyl)-6-(2-(trifluoromethyl)phenyl)-5,6-dihydrobenzo[h]quinazolin-2-amine] gave a melting point of 80 to 82 °C.

Compound `Fc1ccc(C2Cc3cnc(Nc4ccc(CCN5CCCCC5)cc4)nc3-c3ccccc32)cc1F` (stereo not shown) (as salt: hydrochloride) [Example 57, 6-(3,4-difluorophenyl)-N-(4-(2-(piperidin-1-yl)ethyl)phenyl)-5,6-dihydrobenzo[h]quinazolin-2-amine] displayed a melting point of 214 to 218 °C.

`COCCN1CCN(CCc2ccc(Nc3ncc4c(n3)-c3ccccc3[C@H](c3ccc(F)c(F)c3)C4)cc2)CC1` (as salt: hydrochloride) [Example 83, N-(4-(2-(4-(2-(S)-6-(3,4-difluorophenyl)-N-(4-(2-(4-(2-methoxyethyl)piperazin-1-yl)ethyl)phenyl)-5,6-dihydrobenzo[h]quinazolin-2-amine hydrochloride] had a melting point of 190 to 192 °C.
